According to patent US20060228730A1, “Methods for identifying small molecules that bind specific RNA structural motifs” (priority 2001, published 2006):

Experiments:
[1] = system: Rev / IIB (or RRE) region of HIV RNA; settings: Zapp et al., Cell, 1993; cited from earlier work
[2] = system: 60-mer from ribosomal RNA; settings: Cundliffe et al., 1990; cited from earlier work
[3] = system: oligonucleotide corresponding to the 16S rRNA A site; assay: Gel retardation analysis (gel mobility shift), gentamicin-16S rRNA; type: binding
Method: FIG. 2. Gentamicin interacts with an oligonucleotide corresponding to the 16S rRNA. 20 μl reactions containing increasing concentrations of gentamicin (1 ng/ml, 10 ng/ml, 100 ng/ml, 1 μg/ml, 10 μg/ml, 50 μg/ml, 500 μg/ml) were added to 50 pmole RNA oligonucleotide in TKM buffer, heated at 90° C. for 2 min and allowed to cool slowly to 24° C. Then 10 μl of 30% glycerol was added to each sample and the samples were applied to a 13.5% non-denaturing polyacrylamide gel. The gel was electrophoresed using 1200 volt-hours at 4° C. in TBE Buffer Following electrophoresis, the gel was dried and the radioactivity was quantitated using a phosphorimager. The concentration of gentamicin added is indicated above each lane.
(§1) FIG. 3. The presence of 10 pg/ml gentamicin produces a gel mobility shift in the presence of the 16S rRNA oligonucleotide. 20 μl reactions containing increasing concentrations of gentamicin (100 ng/ml, 10 ng/ml, 1 ng/ml, 100 pg/ml, and 10 pg/ml) were added to 50 pmole RNA oligonucleotide in TKM buffer were treated as described for FIG. 2.
FIG. 4. Gentamicin binding to the 16S rRNA oligonucleotide is weak in the absence of MgCl2.
(§2) Tris-potassium chloride (TK) buffer is composed of 50 mM Tris-HC1 pH 7.4, 20 mM KCl, 0.1%Triton X-100, and 0.5 mM MgCl2. Tris-borate-EDTA (TBE) buffer is composed of 45 mM Tris-borate pH 8.0, and 1 mM EDTA. Tris-Potassium chloride-magnesium (TKM) buffer is composed of 50 mM Tris-HCl pH 7.4, 20 mM KCl, 0.1% Triton X-100 and 5 mM MgCl2.
RNA oligonucleotides were purchased from Dharmacon, Inc, Lafayette, Colo.). 500 pmole of either a 5′ fluorescein labeled oligonucleotide corresponding to the 16S rRNA A site (5′-[…]-3′ (SEQ ID NO: 29); Moazed & Noller, 1987, Nature 327:389-394; Woodcock et al., 1991, EMBO J. 10:3099-3103; Yoshizawa et al., 1998, EMBO J. 17:6437-6448) or a 5′ fluorescein labeled oligonucleotide corresponding to the HIV-1 TAR element TAR RNA (5′-[…]-3′ (SEQ ID NO: 30); Huq et al., 1999, Nucleic Acids Research. 27:1084-1093; Hwang et al., 1999, Proc. Natl. Acad. Sci. USA 96:12997-13002) was 3′ labeled with 5-^32P cytidine 3′,5′-bis(phosphate) (NEN) and T4 RNA ligase (NEBiolabs) in 10% DMSO as per manufacturer's instructions. The labeled oligonucleotides were purified using G-25 Sephadex columns (Boehringer Mannheim). For Tat-TAR gel retardation reactions the method of Huq et al. (Nucleic Acids Research, 1999, 27:1084-1093) was utilized with TK buffer containing 0.5 mM MgCl2 and a 12-mer Tat peptide (YGRKKRRQRRRP (SEQ ID NO: 31); single letter amino acid code). For 16S rRNA-gentamicin reactions, the method of Huq et al. was used with TKM buffer. In 20 μl reaction volumes 50 pmoles of ^32P cytidine-labeled oligonucleotide and either gentamicin sulfate (Sigma) or the short Tat peptide (Tat47.58) in TK or TKM buffer were heated at 90° C. for 2 minutes and allow to cool to room temperature (approximately 24° C.) over 2 hours. Then 10 μl of 30% glycerol was added to each reaction tube and the entire sample was loaded onto a TBE non-denaturing polyacrylamide gel and electrophoresed at 1200-1600 volt-hours at 4° C.; The gel was exposed to an intensifying screen and radioactivity was quantitated using a Typhoon phosporimager (Molecular Dynamics).

[4] = system: HIV TAR RNA element oligonucleotide; assay: Gel mobility shift, specificity control with unrelated oligonucleotide; type: binding; settings: incubated with 10 μg/ml gentamicin, FIG. 3
Method: as §1
RNA oligonucleotides were purchased from Dharmacon, Inc, Lafayette, Colo.). 500 pmole of either a 5′ fluorescein labeled oligonucleotide corresponding to the 16S rRNA A site (5′-[…]-3′ (SEQ ID NO: 29); Moazed & Noller, 1987, Nature 327:389-394; Woodcock et al., 1991, EMBO J. 10:3099-3103; Yoshizawa et al., 1998, EMBO J. 17:6437-6448) or a 5′ fluorescein labeled oligonucleotide corresponding to the HIV-1 TAR element TAR RNA (5′-[…]-3′ (SEQ ID NO: 30); Huq et al., 1999, Nucleic Acids Research. 27:1084-1093; Hwang et al., 1999, Proc. Natl. Acad. Sci. USA 96:12997-13002) was 3′ labeled with 5-^32P cytidine 3′,5′-bis(phosphate) (NEN) and T4 RNA ligase (NEBiolabs) in 10% DMSO as per manufacturer's instructions. […] Then 10 μl of 30% glycerol was added to each reaction tube and the entire sample was loaded onto a TBE non-denaturing polyacrylamide gel and electrophoresed at 1200-1600 volt-hours at 4° C.; The gel was exposed to an intensifying screen and radioactivity was quantitated using a Typhoon phosporimager (Molecular Dynamics). […]

[5] = system: HIV-1 TAR element TAR RNA oligonucleotide; assay: Gel retardation analysis (gel mobility shift), Tat peptide-TAR RNA; type: binding; settings: Tat47-58 0.1-1.6 μM, 50 pmole TAR RNA, TK buffer, 12% non-denaturing polyacrylamide gel, FIG. 1
Method: FIG. 1. Gel retardation analysis to detect peptide-RNA interactions. In 20 μl reactions containing increasing concentrations of Tat47.58 peptide (0.1 μM, 0.2 μM, 0.4 μM, 0.8 μM, 1.6 μM) 50 pmole TAR RNA oligonucleotide was added in TK buffer. The reaction mixture was then heated at 90° C. for 2 min and allowed to cool slowly to 24° C. […] of 30% glycerol was added to each sample and applied to a 12% non-denaturing polyacrylamide gel. The gel was electrophoresed using 1200 volt-hours at 4° C. in TBE Buffer. Following electrophoresis, the gel was dried and the radioactivity was quantitated with a phosphorimager. The concentration of peptide added is indicated above each lane.
Tris-potassium chloride (TK) buffer is composed of 50 mM Tris-HC1 pH 7.4, 20 mM KCl, 0.1%Triton X-100, and 0.5 mM MgCl2. Tris-borate-EDTA (TBE) buffer is composed of 45 mM Tris-borate pH 8.0, and 1 mM EDTA. […]
RNA oligonucleotides were purchased from Dharmacon, Inc, Lafayette, Colo.). […] Then 10 μl of 30% glycerol was added to each reaction tube and the entire sample was loaded onto a TBE non-denaturing polyacrylamide gel and electrophoresed at 1200-1600 volt-hours at 4° C.; The gel was exposed to an intensifying screen and radioactivity was quantitated using a Typhoon phosporimager (Molecular Dynamics).

[6] = system: HIV-1 TAR element TAR RNA oligonucleotide; assay: Gel retardation analysis using automated capillary electrophoresis, Tat peptide-TAR RNA; type: binding; settings: increasing concentrations of Tat peptide (0.1-1.6 μM), TK buffer, SCE9610 apparatus, FIG. 5
Method: FIG. 5. Gel retardation analysis to detect peptide-RNA interactions. In reactions containing increasing concentrations of Tat47-58 peptide (0.1 μM, 0.2 μM, 0.4 μM, 0.8 μM, 1.6 μM) 50 pmole TAR RNA oligonucleotide was added in TK buffer. The reaction mixture was then heated at 90° C. for 2 min and allowed to cool slowly to 24° C. The reactions were loaded onto a SCE9610 automated capillary electrophoresis apparatus (SpectruMedix; State College, Pennsylvania). The peaks correspond to the amount of free TAR RNA (“TAR”) or the Tat-TAR complex (“Tat-TAR”). The concentration of peptide added is indicated below each lane.
as §2, with “Tris-HCl” for “Tris-HC1”, “0.1% Triton” for “0.1%Triton”
RNA oligonucleotides were purchased from Dharmacon, Inc. Lafayette, Colo.). 500 pmole of a 5′ fluorescein labeled oligonucleotide corresponding to the HIV-1 TAR element TAR RNA (5′-[…]-3′ (SEQ ID NO: 30); Huq et al., 1999, Nucleic Acids Research. 27:1084-1093; Hwang et al., 1999, Proc. Natl. Acad. Sci. USA 96:12997-13002) was used. […]

NC[C@H]1O[C@H](O[C@H]2[C@H](O)[C@@H](O[C@H]3O[C@H](CO)[C@@H](O)[C@H](N)[C@H]3O)[C@H](N)C[C@@H]2N)[C@H](N)C[C@@H]1O [tobramycin]
blocking of the binding of Rev to its viral recognition element in the IIB (or RRE) region of HIV RNA [1]: can block the binding

NC[C@@H]1O[C@H](O[C@H]2[C@@H](O)[C@H](O[C@@H]3[C@@H](O)[C@H](N)C[C@H](N)[C@H]3O[C@H]3O[C@H](CO)[C@@H](O)C[C@H]3N)O[C@@H]2CO)[C@H](N)[C@@H](O)[C@@H]1O[C@H]1O[C@H](CO)[C@@H](O)[C@H](O)[C@@H]1O [lividomycin A]
blocking of the binding of Rev to its viral recognition element in the IIB (or RRE) region of HIV RNA [1]: can block the binding

NC[C@@H]1O[C@H](O[C@H]2[C@@H](O)[C@H](O[C@@H]3[C@@H](O)[C@H](N)C[C@H](N)[C@H]3O[C@H]3O[C@H](CN)[C@@H](O)[C@H](O)[C@H]3N)O[C@@H]2CO)[C@H](N)[C@@H](O)[C@@H]1O [neomycin B]
blocking of the binding of Rev to its viral recognition element in the IIB (or RRE) region of HIV RNA [1]: can block the binding

thiostreptone
binding to a 60-mer from ribosomal RNA [2]: binds tightly

gentamicin
gentamicin concentration as low as which produces the mobility shift ([3]; TKM buffer (5 mM MgCl2), FIG. 2): 10 ng/mL | gentamicin concentration as low as which gel mobility shifts are produced ([3]; TKM buffer, concentrations ranged from 100 ng/ml to 10 pg/ml, FIG. 3): 10 pg/mL | gentamicin binding to the 16S rRNA oligonucleotide in the absence of MgCl2 ([3]; buffer does not contain MgCl2, FIG. 4 legend): weak | mobility shift when gentamicin is added after renaturation has proceeded to 75° C. ([3]; gentamicin added after the renaturation step proceeded to 75° C.): a mobility shift is not produced | gel shift when gentamicin is added at 90° C. or 85° C. ([3]; gentamicin present during the entire denaturation/renaturation cycle, data not shown): a gel shift is visualized | gentamicin concentration that must be added to produce a gel shift when MgCl2 is not present ([3]; no MgCl2 in buffer, FIG. 4): 1 mg/mL | mobility shift of RNA oligonucleotide corresponding to the 16S rRNA A site ([3]; varying concentrations of gentamicin (1 ng/ml-500 μg/ml), TKM buffer, 13.5% non-denaturing gel, FIG. 2): produces a mobility shift | gel mobility shift of unrelated oligonucleotide (HIV TAR RNA element) [4]: does not result in a gel mobility shift

YGRKKRRQRRRP [Tat47.58 peptide]
gel mobility shift of TAR RNA oligonucleotide in the presence of the Tat peptide [5]: a clear shift is visible | shift of TAR RNA peak in automated capillary electrophoresis [6]: a clear shift is visible
